The results in this text go back to ChEMBL document CHEMBL1149685, “Novel tethers in ketolide antibiotics” (2007).

Values after ≈ are worked out from the molar mass of the structure shown. Active and inactive are the calls of the source. No cut-off for these calls is given here.

Holding throughout (assay type): functional
Assay [1] deals with Haemophilus influenzae. The assay can be described thus: Antibacterial activity against Haemophilus influenzae 1100 in po dosed gerbils.
Assay [2] deals with Streptococcus pyogenes. The assay can be described thus: Antibacterial activity against erythromycin-resistant Streptococcus pyogenes 1068 in mouse soft tissue infection model assessed as reduction in bacterial count at 100 mg/kg, po after 24 hrs.
Assay [3] relates to Streptococcus pneumoniae. The assay can be described thus: Antibacterial activity against erythromycin-resistant ermB expressing Streptococcus pneumoniae 1095.
For assay [4], the system named is Haemophilus influenzae. As to the kind of experiment: Antimicrobial activity against Haemophilus influenzae 1325.
The test system of assay [5] is Streptococcus pyogenes. The assay can be described thus: Antibacterial activity against erythromycin-resistant ermB expressing Streptococcus pyogenes 1079.
The subject of assay [6] is Streptococcus pneumoniae. As to the kind of experiment: Antibacterial activity against erythromycin-resistant mef expressing Streptococcus pneumoniae 1175.
The test system of assay [7] is Streptococcus pneumoniae. As to the kind of experiment: Protection against erythromycin-resistant Streptococcus pneumoniae 1095 infection in po dosed mouse after 4 days.
Where [8] appears, read: Streptococcus pneumoniae, read-out: MIC.

What is called ED50 is the dose that gives a 50% effect, or the effect in half of the subjects. A low value points to greater potency. `CC[C@H]1OC(=O)[C@@](C)(F)C(=O)[C@H](C)[C@@H](O[C@@H]2O[C@H](C)C[C@H](N(C)C)[C@H]2O)[C@](C)(OC)C[C@@H](C)C(=O)[C@H](C)[C@H]2N(CNC(=O)OCc3ccc4nccnc4c3)C(=O)O[C@]12C` registered an ED50 in assay [1] of 39.5 mg/kg. Also, in assay [2], the Log10 cfu came to 2.3. In addition, the MIC was below 0.063 µg/mL in assay [3] (setting [8]), 2 µg/mL (≈ 2.36 µM) in assay [4], 1 µg/mL (≈ 1.18 µM) in assay [5] and below 0.063 µg/mL in assay [6]. Moreover, the PD50 in assay [7] came out at 71.2 mg/kg.

For `CC[C@H]1OC(=O)[C@H](C)C(=O)[C@H](C)[C@@H](O[C@@H]2O[C@H](C)C[C@H](N(C)C)[C@H]2O)[C@](C)(OC)C[C@@H](C)C(=O)[C@H](C)[C@H]2N(CNC(=O)NCc3ccc4cccnc4c3)C(=O)O[C@]12C`, the MIC in assay [3] (setting [8]) was below 0.063 µg/mL; in assay [4], 4 µg/mL (≈ 4.84 µM); in assay [5] it was 64 µg/mL (≈ 77.5 µM); in assay [6], 0.5 µg/mL (≈ 0.605 µM).

With `CC[C@H]1OC(=O)[C@H](C)C(=O)[C@H](C)[C@@H](O[C@@H]2O[C@H](C)C[C@H](N(C)C)[C@H]2O)[C@](C)(OC)C[C@@H](C)C(=O)[C@H](C)[C@H]2N(CCCCn3cnc(-c4cccnc4)c3)C(=O)O[C@]12C` [TELITHROMYCIN], the 50% effect level in assay [1] (ED50) was put at a dose of 27.5 mg/kg. Moreover, the result in assay [2] was inactive. For the same compound, the MIC in assay [3] (setting [8]) was below 0.063 µg/mL; in assay [4], 3.9 µg/mL (≈ 4.8 µM); in assay [5], 18 µg/mL (≈ 22.2 µM); in assay [6], 0.378 µg/mL (≈ 0.466 µM). The compound also returned a PD50 in assay [7] of 71.5 mg/kg.

`CC[C@H]1OC(=O)[C@H](C)C(=O)[C@H](C)[C@@H](O[C@@H]2O[C@H](C)C[C@H](NC)[C@H]2O)[C@](C)(OC)C[C@@H](C)C(=O)[C@H](C)[C@H]2N(CNC(=O)OCc3cnc4ccccc4c3)C(=O)O[C@]12C`: the MIC was below 0.063 µg/mL in assay [3] (setting [8]), 8 µg/mL (≈ 9.84 µM) in assay [4], 64 µg/mL (≈ 78.7 µM) in assay [5] and below 0.063 µg/mL in assay [6].

With `CC[C@H]1OC(=O)[C@H](C)C(=O)[C@H](C)[C@@H](O[C@@H]2O[C@H](C)C[C@H](N(C)C)[C@H]2O)[C@](C)(OC)C[C@@H](C)C(=O)[C@H](C)[C@H]2N(CNC(=O)OCc3cccc4ncccc34)C(=O)O[C@]12C`, the MIC in assay [3] (setting [8]) turned out to be 0.125 µg/mL (≈ 0.151 µM); in assay [4], 32 µg/mL (≈ 38.7 µM); in assay [5], 16 µg/mL (≈ 19.3 µM); in assay [6], 0.125 µg/mL (≈ 0.151 µM).

For `CC[C@H]1OC(=O)[C@H](C)C(=O)[C@H](C)[C@@H](O[C@@H]2O[C@H](C)C[C@H](N(C)C)[C@H]2O)[C@](C)(OC)C[C@@H](C)C(=O)[C@H](C)[C@H]2N(CNC(=O)NCc3ccc4nccnc4c3)C(=O)O[C@]12C`, the MIC in assay [3] (setting [8]) is below 0.063 µg/mL; in assay [4], 2 µg/mL (≈ 2.42 µM); in assay [5] it was 2 µg/mL (≈ 2.42 µM); in assay [6], 0.25 µg/mL (≈ 0.302 µM).

For the compound `CC[C@H]1OC(=O)[C@H](C)C(=O)[C@H](C)[C@@H](O[C@@H]2O[C@H](C)C[C@H](N(C)C)[C@H]2O)[C@](C)(OC)C[C@@H](C)C(=O)[C@H](C)[C@H]2N(CNC(=O)NCc3cnc4ccccc4n3)C(=O)O[C@]12C`, the MIC is below 0.063 µg/mL in assay [3] (setting [8]), 4 µg/mL (≈ 4.84 µM) in assay [4], above 64 µg/mL in assay [5] and 0.25 µg/mL (≈ 0.302 µM) in assay [6].

As to `CC[C@H]1OC(=O)[C@H](C)C(=O)[C@H](C)[C@@H](O[C@@H]2O[C@H](C)C[C@H](N(C)C)[C@H]2O)[C@](C)(OC)C[C@@H](C)C(=O)[C@H](C)[C@H]2N(CNC(=O)NCc3ccc4ncccc4c3)C(=O)O[C@]12C`, the MIC was determined as 0.25 µg/mL (≈ 0.303 µM) in assay [3] (setting [8]), 1 µg/mL (≈ 1.21 µM) in assay [4], 4 µg/mL (≈ 4.84 µM) in assay [5] and 0.125 µg/mL (≈ 0.151 µM) in assay [6].

For `CC[C@H]1OC(=O)[C@H](C)C(=O)[C@H](C)[C@@H](O[C@@H]2O[C@H](C)C[C@H](N(C)C)[C@H]2O)[C@](C)(OC)C[C@@H](C)C(=O)[C@H](C)[C@H]2N(CNC(=O)OCc3ccc4ncccc4c3)C(=O)O[C@]12C`, the MIC is 0.25 µg/mL (≈ 0.302 µM) in assay [3] (setting [8]), 2 µg/mL (≈ 2.42 µM) in assay [4], 8 µg/mL (≈ 9.67 µM) in assay [5] and below 0.063 µg/mL in assay [6].

For the compound `CC[C@H]1OC(=O)[C@H](C)C(=O)[C@H](C)[C@@H](O[C@@H]2O[C@H](C)C[C@H](N(C)C)[C@H]2O)[C@](C)(OC)C[C@@H](C)C(=O)[C@H](C)[C@H]2N(CNC(=O)NCc3cncc4ccccc34)C(=O)O[C@]12C`, the MIC in assay [3] (setting [8]) was below 0.063 µg/mL; in assay [4], 4 µg/mL (≈ 4.84 µM); in assay [5], 16 µg/mL (≈ 19.4 µM); in assay [6], below 0.063 µg/mL.

On to `CC[C@H]1OC(=O)[C@H](C)C(=O)[C@H](C)[C@@H](O[C@@H]2O[C@H](C)C[C@H](N(C)C)[C@H]2O)[C@](C)(OC)C[C@@H](C)C(=O)[C@H](C)[C@H]2N(CNC(=O)OCc3cnc4ccccc4n3)C(=O)O[C@]12C`, for which the MIC in assay [3] (setting [8]) was 0.25 µg/mL (≈ 0.302 µM); in assay [4] it was 8 µg/mL (≈ 9.66 µM); in assay [5] it was above 64 µg/mL; in assay [6], 0.25 µg/mL (≈ 0.302 µM).

Turning to `CC[C@H]1OC(=O)[C@H](C)C(=O)[C@H](C)[C@@H](O[C@@H]2O[C@H](C)C[C@H](N(C)C)[C@H]2O)[C@](C)(OC)C[C@@H](C)C(=O)[C@H](C)[C@H]2N(CNC(=O)OCc3ccc4cccnc4c3)C(=O)O[C@]12C`, the MIC in assay [3] (setting [8]) was below 0.063 µg/mL; in assay [4], 4 µg/mL (≈ 4.84 µM); in assay [5] it was 64 µg/mL (≈ 77.4 µM); in assay [6], below 0.063 µg/mL.

Consider `CC[C@H]1OC(=O)[C@@](C)(F)C(=O)[C@H](C)[C@@H](O[C@@H]2O[C@H](C)C[C@H](N(C)C)[C@H]2O)[C@](C)(OC)C[C@@H](C)C(=O)[C@H](C)[C@H]2N(CNC(=O)NCc3ccc4nccnc4c3)C(=O)O[C@]12C`, for which the MIC in assay [3] (setting [8]) was below 0.063 µg/mL; in assay [4] it was 1 µg/mL (≈ 1.18 µM); in assay [5] it was 1 µg/mL (≈ 1.18 µM); in assay [6], below 0.063 µg/mL.

Turning to `CC[C@H]1OC(=O)[C@H](C)C(=O)[C@H](C)[C@@H](O[C@@H]2O[C@H](C)C[C@H](N(C)C)[C@H]2O)[C@](C)(OC)C[C@@H](C)C(=O)[C@H](C)[C@H]2N(CCNC(=O)NCc3cnc4ccccc4c3)C(=O)O[C@]12C`, the MIC in assay [3] (setting [8]) was above 64 µg/mL; in assay [4], 16 µg/mL (≈ 19 µM); in assay [5], above 64 µg/mL; in assay [6] it was 0.5 µg/mL (≈ 0.595 µM).

In the case of `CC[C@H]1OC(=O)[C@H](C)C(=O)[C@H](C)[C@@H](O[C@@H]2O[C@H](C)C[C@H](N(C)C)[C@H]2O)[C@](C)(OC)C[C@@H](C)C(=O)[C@H](C)[C@H]2N(CNC(=O)OCc3ccnc4ccccc34)C(=O)O[C@]12C`, the MIC in assay [3] (setting [8]) is 0.5 µg/mL (≈ 0.605 µM); in assay [4] it was 8 µg/mL (≈ 9.67 µM); in assay [5], 64 µg/mL (≈ 77.4 µM); in assay [6], below 0.063 µg/mL.

Consider `CC[C@H]1OC(=O)[C@@](C)(F)C(=O)[C@H](C)[C@@H](O[C@@H]2O[C@H](C)C[C@H](N(C)C)[C@H]2O)[C@](C)(OC)C[C@@H](C)C(=O)[C@H](C)[C@H]2N(CNC(=O)OCc3cccc4nccnc34)C(=O)O[C@]12C`, for which the MIC is below 0.063 µg/mL in assay [3] (setting [8]), 4 µg/mL (≈ 4.73 µM) in assay [4], 22.6 µg/mL (≈ 26.7 µM) in assay [5] and below 0.063 µg/mL in assay [6].

With `CC[C@H]1OC(=O)[C@H](C)C(=O)[C@H](C)[C@@H](O[C@@H]2O[C@H](C)C[C@H](N(C)C)[C@H]2O)[C@](C)(OC)C[C@@H](C)C(=O)[C@H](C)[C@H]2N(CCNC(=O)OCc3cnc4ccccc4c3)C(=O)O[C@]12C`, the MIC in assay [3] was above 64 µg/mL; in assay [4], 32 µg/mL (≈ 38 µM); in assay [5], above 64 µg/mL; in assay [6], 0.125 µg/mL (≈ 0.149 µM).

As to `CC[C@H]1OC(=O)[C@H](C)C(=O)[C@H](C)[C@@H](O[C@@H]2O[C@H](C)C[C@H](N(C)C)[C@H]2O)[C@](C)(OC)C[C@@H](C)C(=O)[C@H](C)[C@H]2N(CNC(=O)Nc3cnc4ccccc4c3)C(=O)O[C@]12C`, the MIC in assay [3] (setting [8]) was 0.25 µg/mL (≈ 0.308 µM); in assay [4], 16 µg/mL (≈ 19.7 µM); in assay [5], above 64 µg/mL; in assay [6] it was below 0.063 µg/mL.

Take `CC[C@H]1OC(=O)[C@H](C)C(=O)[C@H](C)[C@@H](O[C@@H]2O[C@H](C)C[C@H](N(C)C)[C@H]2O)[C@](C)(OC)C[C@@H](C)C(=O)[C@H](C)[C@H]2N(CNC(=O)OCc3ccc4nccnc4c3)C(=O)O[C@]12C`: the MIC in assay [3] (setting [8]) is below 0.063 µg/mL; in assay [4] it was 2 µg/mL (≈ 2.42 µM); in assay [5] it was 16 µg/mL (≈ 19.3 µM); in assay [6] it was below 0.063 µg/mL.
